Reference: patent US11161855B2, “Tricyclic fused thiophene derivatives as JAK inhibitors” (Incyte Corporation, priority 2012, dated 2021)

Tested on: human JAK1 (a.a. 837-1142)
Test: In vitro JAK kinase assay (HTRF), JAK1
Type: biochemical
Conditions: ratio of IC50s, 1 mM ATP
Experimental: Compounds herein were tested for inhibitory activity of JAK targets according to the following in vitro assay described in Park et al., Analytical Biochemistry 1999, 269, 94-104. The catalytic domains of human JAK1 (a.a. 837-1142), JAK2 (a.a. 828-1132) and JAK3 (a.a. 781-1124) were expressed using baculovirus in insect cells and purified. The catalytic activity of JAK1, JAK2 or JAK3 was assayed by measuring the phosphorylation of a biotinylated peptide. The phosphorylated peptide was detected by homogenous time resolved fluorescence (HTRF). IC50s of compounds were measured for each kinase in the 40 μL reactions that contain the enzyme, ATP and 500 nM peptide in 50 mM Tris (pH 7.8) buffer with 100 mM NaCl, 5 mM DTT, and 0.1 mg/mL (0.01%) BSA. For the 1 mM IC50 measurements, ATP concentration in the reactions was 1 mM. Reactions were carried out at room temperature for 1 hour and then stopped with 20 μL 45 mM EDTA, 300 nM SA-APC, 6 nM Eu-Py20 in assay buffer (Perkin Elmer, Boston, Mass.). Binding to the Europium labeled antibody took place for 40 minutes and HTRF signal was measured on a PHERA star plate reader (BMG, Cary, N.C.). The Example compounds were each tested in the Example A assay (see Table 1 for data for the compounds of the examples as tested by the assay of Example A at 1 mM ATP).

Row | Compound | JAK2/JAK1
1 | N#CC[C@H]1CC[C@H](n2c(CO)nc3cnc4ccsc4c32)CC1 [Example 17, {trans-4-[2-(Hydroxymethyl)-1H-imidazo[4,5-d]thieno[3,2-b]pyridin-1-yl]cyclohexyl}acetonitrile] | >10
2 | C[C@@H](O)c1nc2cnc3ccsc3c2n1[C@H]1CCCN(C(=O)CCc2cccnc2)C1 [Example 54, (1R)-1-{1-[(3S)-1-(3-Pyridin-3-ylpropanoyl)piperidin-3-yl]-1H-imidazo[4,5-d]thieno[3,2-b]pyridin-2-yl}ethanol] | >10
3 | C[C@@H](O)c1nc2cnc3ccsc3c2n1C1CCN(CC#N)CC1.O=C(O)C(F)(F)F [Example 61, (4-{2-[(1R)-1-Hydroxyethyl]-1H-imidazo[4,5-d]thieno[3,2-b]pyridin-1-yl}piperidin-1-yl)acetonitrile trifluoroacetate] | >10
4 | N#CC[C@H]1CC[C@H](n2c(CO)nc3cnc4ccsc4c32)CO1 [Example 91, {(2R,5S)-5-[2-(Hydroxymethyl)-1H-imidazo[4,5-d]thieno[3,2-b]pyridin-1-yl]tetrahydro-2H-pyran-2-yl}acetonitrile] | >10
5 | N#CCc1nc2cnc3ccsc3c2n1[C@H]1CC[C@H](CC#N)CC1 [Example 90, {1-[trans-4-(Cyanomethyl)cyclohexyl]-1H-imidazo[4,5-d]thieno[3,2-b]pyridin-2-yl}acetonitrile] | >10
6 | C[C@@H](O)c1nc2cnc3ccsc3c2n1[C@H]1CCCN(C(=O)CCCC#N)C1 [Example 59, 5-((3S)-3-{2-[(1R)-1-Hydroxyethyl]-1H-imidazo[4,5-d]thieno[3,2-b]pyridin-1-yl}piperidin-1-yl)-5-oxopentanenitrile] | >10
7 | C[C@@H](O)c1nc2cnc3ccsc3c2n1[C@H]1CC[C@H](CNS(C)(=O)=O)OC1 [Example 75, N-[((2R,5S)-5-{2-[(1R)-1-Hydroxyethyl]-1H-imidazo[4,5-d]thieno[3,2-b]pyridin-1-yl}tetrahydro-2H-pyran-2-yl)methyl]methanesulfonamide] | >10
8 | C[C@@H](O)c1nc2cnc3ccsc3c2n1[C@H]1CCC(CO)OC1 (stereo partly drawn) [Example 19, (1R)-1-{1-[(3S)-6-(Hydroxymethyl)tetrahydro-2H-pyran-3-yl]-1H-imidazo[4,5-d]thieno[3,2-b]pyridin-2-yl}ethanol] | >10
9 | C[C@@H](O)c1nc2cnc3ccsc3c2n1[C@H]1CCN(CCCCC#N)C1 [Example 66, 5-((3S)-3-{2-[(1R)-1-Hydroxyethyl]-1H-imidazo[4,5-d]thieno[3,2-b]pyridin-1-yl}pyrrolidin-1-yl)pentanenitrile] | >10
10 | C[C@@H](O)c1nc2cnc3ccsc3c2n1[C@H]1CCN(CCCC(F)(F)F)C1 [Example 64, (1R)-1-{1-[(3S)-1-(4,4,4-Trifluorobutyl)pyrrolidin-3-yl]-1H-imidazo[4,5-d]thieno[3,2-b]pyridin-2-yl}ethanol] | >10
11 | Cc1nc2cnc3ccsc3c2n1[C@H]1CC[C@H](CC#N)OC1 [Example 38, [(2R,5S)-5-(2-Methyl-1H-imidazo[4,5-d]thieno[3,2-b]pyridin-1-yl)tetrahydro-2H-pyran-2-yl]acetonitrile] | >10
12 | Cc1nn2cnc3ccsc3c2c1-c1ccc(CC#N)cc1 [Example 46, [4-(8-Methylpyrazolo[1,5-c]thieno[2,3-e]pyrimidin-9-yl)phenyl]acetonitrile] | >3
13 | C[C@@H](O)c1nc2cnc3ccsc3c2n1[C@H]1CCN(CCC#N)C1 [Example 62, 3-((3S)-3-{2-[(1R)-1-Hydroxyethyl]-1H-imidazo[4,5-d]thieno[3,2-b]pyridin-1-yl}pyrrolidin-1-yl)propanenitrile] | >10
14 | CC(=O)NC(C)c1nc2cnc3ccsc3c2n1[C@H]1CC[C@H](CC#N)OC1 (stereo partly drawn) [Example 69, N-(1-{1-[(3S,6R)-6-(Cyanomethyl)tetrahydro-2H-pyran-3-yl]-1H-imidazo[4,5-d]thieno[3,2-b]pyridin-2-yl}ethyl) acetamide] | >10
15 | Cc1nc2cnc3ccsc3c2n1[C@H]1CC[C@H](CC#N)[C@@H](O)C1 (single isomer, unassigned) [41 (first peak)] | >10
16 | N#CC[C@H]1CC[C@H](n2c(C3CC3)nc3cnc4ccsc4c32)CC1 [Example 26, [trans-4-(2-Cyclopropyl-1H-imidazo[4,5-d]thieno[3,2-b]pyridin-1-yl)cyclohexyl]acetonitrile] | >10
17 | N#CCc1nc2cnc3ccsc3c2n1[C@H]1CC[C@@H](CC#N)OC1 [Example 74, {(2S,5S)-5-[2-(Cyanomethyl)-1H-imidazo[4,5-d]thieno[3,2-b]pyridin-1-yl]tetrahydro-2H-pyran-2-yl}acetonitrile] | >10
18 | C[C@@H](O)c1nc2cnc3ccsc3c2n1[C@H]1CCCN(C(=O)CCc2cn[nH]c2)C1 [Example 53, (1R)-1-(1-{(3S)-1-[3-(1H-Pyrazol-4-yl)propanoyl]piperidin-3-yl}-1H-imidazo[4,5-d]thieno[3,2-b]pyridin-2-yl)ethanol] | >10

The remaining lines, values ahead:

Row | JAK2/JAK1 | Compound
19 | >10 | COC(=O)NC[C@H]1CC[C@H](n2c([C@@H](C)O)nc3cnc4ccsc4c32)CC1 [Example 78, Methyl [(trans-4-{2-[(1R)-1-hydroxyethyl]-1H-imidazo[4,5-d]thieno[3,2-b]pyridin-1-yl}cyclohexyl)methyl]carbamate]
20 | >10 | CCOC(=O)NC[C@H]1CC[C@H](n2c([C@@H](C)O)nc3cnc4ccsc4c32)CC1 [Example 82, Ethyl [(trans-4-{2-[(1R)-1-hydroxyethyl]-1H-imidazo[4,5-d]thieno[3,2-b]pyridin-1-yl}cyclohexyl)methyl]carbamate]
21 | >10 | COC(=O)NC[C@H]1CC[C@H](n2c(CC#N)nc3cnc4ccsc4c32)CC1 [Example 86, Methyl ({trans-4-[2-(cyanomethyl)-1H-imidazo[4,5-d]thieno[3,2-b]pyridin-1-yl]cyclohexyl}methyl)carbamate]
22 | >10 | C[C@@H](O)c1nc2cnc3ccsc3c2n1[C@H]1CC[C@H](CC#N)CC1 [Example 2, (trans-4-{2-[(1R)-1-Hydroxyethyl]-1H-imidazo[4,5-d]thieno[3,2-b]pyridin-1-yl}cyclohexyl)acetonitrile]
23 | >10 | C[C@@H](O)c1nc2cnc3ccsc3c2n1[C@H]1CC[C@H](CNS(C)(=O)=O)CC1 [Example 80, N-[(trans-4-{2-[(1R)-1-Hydroxyethyl]-1H-imidazo[4,5-d]thieno[3,2-b]pyridin-1-yl}cyclohexyl)methyl]methanesulfonamide]
24 | >10 | CCOC(=O)N1CCC[C@H](n2c([C@@H](C)O)nc3cnc4ccsc4c32)C1 [Example 50, Ethyl (3S)-3-{2-[(1R)-1-hydroxyethyl]-1H-imidazo[4,5-d]thieno[3,2-b]pyridin-1-yl}piperidine-1-carboxylate]
25 | >10 | C[C@@H](O)c1nc2cnc3ccsc3c2n1[C@H]1CC[C@H](CF)CC1 [Example 12, (1R)-1-{1-[trans-4-(Fluoromethyl)cyclohexyl]-1H-imidazo[4,5-d]thieno[3,2-b]pyridin-2-yl}ethanol]
26 | >10 | C[C@@H](O)c1nc2cnc3ccsc3c2n1[C@H]1CC[C@H](NCC(F)(F)F)CC1 [Example 4, (1R)-1-(1-{trans-4-[(2,2,2-Trifluoroethyl)amino]cyclohexyl}-1H-imidazo[4,5-d]thieno[3,2-b]pyridin-2-yl)ethanol]
